Measurements taken from US7601750B2, “Small molecule inhibition of a PDZ-domain interaction” (The Regents of the University of California, priority 2003, dated 2009).

Experiments:
H1703 = test: Apoptotic effects in cancer cells overexpressing Dvl, H1703; format: cell-based, human
Description: (§1) Compounds were tested for apoptotic effects to represent the inhibitory effects of compounds on interaction between the PDZ domain of the Dishevelled (Dlv) protein and the Fz protein (Wnt receptor). Cell lines H513 and H1703 were utilized, with test compounds (compound numbers from Tables 1 and 2) being applied at 0 (control), 10 μM and 100 μM.

H513 = test: Apoptotic effects in cancer cells overexpressing Dvl, H513; format: cell-based, human; conditions: for apoptosis, %: H513, 1 day
Description: as §1

[1] = tested on: human Dishevelled (Dvl) protein; test: Binding to Dishevelled protein
[2] = tested on: human lung cancer (H1073) cells; test: Growth suppression and apoptosis in lung cancer cells (other tests); format: cell-based; conditions: 100 μM, after 4 days
[3] = tested on: human melanoma (LOX) cells; test: Growth suppression and apoptosis in melanoma cells (other tests); format: cell-based; conditions: 100 μM, after 4 days
[4] = tested on: human lung cancer (H460) cells; test: Growth suppression and apoptosis in lung cancer H460 cells (other tests); format: cell-based; conditions: 100 μM, after 4 days
[5] = tested on: Wnt/beta-Catenin signaling; test: Inhibition of Wnt/beta-Catenin signaling in A549; format: cell-based; conditions: human lung cancer cell line A549
[6] = tested on: Wnt/beta-Catenin signaling; test: Inhibition of Wnt/beta-Catenin signaling in H1703; format: cell-based; conditions: human lung cancer cell line H1703

| SMILES | apoptosis, % (H1703; 10 μM, H1703, 4 days) [%] | apoptosis, % (H1703; 100 μM, H1703, 4 days) [%] | apoptosis, % (H1703; 10 μM, H1703, 1 day) [%] | apoptosis, % (H1703; 100 μM, H1703, 1 day) [%] | apoptosis, % (H513; 10 μM) [%] | apoptosis, % (H513; 100 μM) [%] | suppress cancer cell growth and induce apoptosis, % of the population (H513; 100 μM, after 4 days, human mesothelioma (H513) cells) | binding to human Dishevelled (Dvl) protein [1] | suppress cancer cell growth and induce apoptosis, % of the population [2] | suppress cancer cell growth and induce apoptosis, % of the population [3] [%] | suppress cancer cell growth and induce apoptosis, % of the population [4] | inhibition of Wnt/beta-Catenin signaling [5] | inhibition of Wnt/beta-Catenin signaling [6] |
| --- | --- | --- | --- | --- | --- | --- | --- | --- | --- | --- | --- | --- | --- |
| CCCCC(O)c1cc2cc(C)c(C(=O)O)cc2n1CCc1ccccc1 (stereo not shown) [Compound 1, [2-(1-Hydroxypentyl)-5-methyl-1-(2-phenylethyl)]indole-6-carboxylic acid] | 6.2 | 38.7 | – | – | – | – | – | – | – | – | – | – | – |
| CCCCCc1c(CO)c2cc(C)c(C(=O)[O-])cc2n1CCc1ccccc1.[Na+] [Compound 6, Sodium [3-hydroxymethyl-2-(1-pentyl)-1-(2-phenylethyl)-5-methyl]indole-6-carboxylate] | – | – | 8.2 | 34.0 | 14.3 | 52.5 | over 50% | bind | up to 85.2% | 35 | about 20% | inhibit | inhibit |
